Results reported in ChEMBL document CHEMBL2021790, “Pyridone methylsulfone hydroxamate LpxC inhibitors for the treatment of serious gram-negative infections” (J Med Chem, 2012).
≈ marks a conversion by molar mass, not a printed value.

Experiments:
[1] = AUC in rat at 10 mg/kg; format: ADME, organism-based; parameters: dose 10 mg/kg; details: plasma
Klebsiella aerogenes = assay: microbe, parasite or virus in culture
Description: Antimicrobial activity against Enterobacter aerogenes after 16 to 20 hrs by 2-fold microbroth dilution method

Pseudomonas aeruginosa [2] = assay: Antimicrobial activity against wild type Pseudomonas aeruginosa PA01 after 16 to 20 hrs by 2-fold microbroth dilution method; format: functional
[3] = Fraction unbound in human plasma relative to untreated control; format: ADME, cell-free
[4] = Clearance in rat at 10 mg/kg; format: ADME, organism-based; parameters: dose 10 mg/kg; details: in vivo
Rattus norvegicus = assay: Free AUC in rat at 10 mg/kg; format: ADME, organism-based; parameters: dose 10 mg/kg; details: in vivo
[5] = Half life in rat at 10 mg/kg; format: ADME, organism-based; parameters: dose 10 mg/kg; details: in vivo
Escherichia coli = assay: microbe, parasite or virus in culture
Description: Antimicrobial activity against Escherichia coli after 16 to 20 hrs by 2-fold microbroth dilution method

[6] = Fraction unbound in rat plasma relative to untreated control; format: ADME, cell-free
[7] = Volume of distribution at steady state in rat at 10 mg/kg; format: ADME, organism-based; parameters: dose 10 mg/kg; details: in vivo, read-out: Vdss
[8] = Thermodynamic solubility of the compound in thermosol at pH 3.0; format: physicochemical; details: buffer, read-out: Therm_solubility
[9] = Thermodynamic solubility of the compound in thermosol at pH 9; format: physicochemical; details: buffer, read-out: Therm_solubility
Acinetobacter sp. = assay: Antimicrobial activity against Acinetobacter sp. after 16 to 20 hrs by 2-fold microbroth dilution method; format: functional
[10] = Thermodynamic solubility of the compound in thermosol at pH 7.4; format: physicochemical; details: buffer, read-out: Therm_solubility
Citrobacter freundii = assay: microbe, parasite or virus in culture
Description: Antimicrobial activity against Citrobacter freundii after 16 to 20 hrs by 2-fold microbroth dilution method

Klebsiella pneumoniae = assay: microbe, parasite or virus in culture
Description: Antimicrobial activity against Klebsiella pneumoniae after 16 to 20 hrs by 2-fold microbroth dilution method

Pseudomonas aeruginosa [11] = assay: microbe, parasite or virus in culture
Description: Antimicrobial activity against Pseudomonas aeruginosa after 16 to 20 hrs by 2-fold microbroth dilution method

Pseudomonas aeruginosa [12] = assay: Antimicrobial activity against Pseudomonas aeruginosa PA3919 with (delta(mexAB-OprM)delta(mexXY)delta(MexZ) phenotype after 16 to 20 hrs by 2-fold microbroth dilution method; format: functional

| AUC [1] | MIC90 (Klebsiella aerogenes) | MIC (Pseudomonas aeruginosa [2]) | fraction unbound [3] | clearance [4] | fAUC (Rattus norvegicus) | half-life [5] | MIC90 (Escherichia coli) | fraction unbound [6] | Vd [7] | solubility thermodynamic [8] | solubility thermodynamic [9] | MIC90 (Acinetobacter sp.) | solubility thermodynamic [10] | MIC90 (Citrobacter freundii) | MIC90 (Klebsiella pneumoniae) | MIC90 (Pseudomonas aeruginosa [11]) | MIC (Pseudomonas aeruginosa [12]) | SMILES |
| --- | --- | --- | --- | --- | --- | --- | --- | --- | --- | --- | --- | --- | --- | --- | --- | --- | --- | --- |
| 2900 ng·h/mL | 4 µg/mL (≈ 11.5 µM) | 0.125 µg/mL (≈ 0.36 µM) | 0.023 | 57 mL/min/kg | 75 ng·h/mL | 3.2 h | 2 µg/mL (≈ 5.76 µM) | 0.026 | 3.8 L/kg | 7.3 µg/mL (≈ 21 µM) | 260 µg/mL (≈ 748 µM) | 32 µg/mL (≈ 92.1 µM) | 3.9 µg/mL (≈ 11.2 µM) | 8 µg/mL (≈ 23 µM) | 16 µg/mL (≈ 46.1 µM) | 4 µg/mL (≈ 11.5 µM) | 0.008 µg/mL (≈ 0.023 µM) | C[C@@](CCc1ccc(-c2ccccc2)cc1)(C(=O)NO)S(C)(=O)=O |
| 5200 ng·h/mL | 0.125 µg/mL (≈ 0.29 µM) | 0.25 µg/mL (≈ 0.579 µM) | 0.25 | 32 mL/min/kg | 680 ng·h/mL | 0.94 h | 0.06 µg/mL (≈ 0.139 µM) | 0.13 | 0.92 L/kg | 3.3 µg/mL (≈ 7.65 µM) | 2740 µg/mL (≈ 6350 µM) | 64 µg/mL (≈ 148 µM) | 9.2 µg/mL (≈ 21.3 µM) | 0.125 µg/mL (≈ 0.29 µM) | 0.125 µg/mL (≈ 0.29 µM) | 1 µg/mL (≈ 2.32 µM) | 0.015 µg/mL (≈ 0.0348 µM) | C[C@@](CCn1ccc(-c2ccc(-n3nccn3)cc2)cc1=O)(C(=O)NO)S(C)(=O)=O |
|  | 16 µg/mL (≈ 43.9 µM) | 0.5 µg/mL (≈ 1.37 µM) | 0.14 |  |  |  | 8 µg/mL (≈ 22 µM) | 0.28 |  | 410 µg/mL (≈ 1130 µM) | > 16000 µg/mL | 32 µg/mL (≈ 87.8 µM) | 480 µg/mL (≈ 1320 µM) | 8 µg/mL (≈ 22 µM) | 16 µg/mL (≈ 43.9 µM) | 2 µg/mL (≈ 5.49 µM) | 0.06 µg/mL (≈ 0.165 µM) | C[C@@](CCn1ccc(-c2ccccc2)cc1=O)(C(=O)NO)S(C)(=O)=O |
| 2300 ng·h/mL | 0.5 µg/mL (≈ 1.21 µM) | 0.125 µg/mL (≈ 0.303 µM) | 0.31 | 72 mL/min/kg | 740 ng·h/mL | 1.4 h | 0.25 µg/mL (≈ 0.606 µM) | 0.32 | 1.7 L/kg | 82 µg/mL (≈ 199 µM) | > 14000 µg/mL | > 64 µg/mL | 130 µg/mL (≈ 315 µM) | 0.5 µg/mL (≈ 1.21 µM) | 0.5 µg/mL (≈ 1.21 µM) | 1 µg/mL (≈ 2.42 µM) | 0.008 µg/mL (≈ 0.0194 µM) | COc1ccc(-c2ccn(CC[C@](C)(C(=O)NO)S(C)(=O)=O)c(=O)c2)c(F)c1 |
